Literature values in patent US20220226500A1, “FULLERENIC ELLAGIC LUTEOLIN AND METHODS” (Sinapu LLC, priority 2021, published 2022).

Columns and labels:
[1] = human body
[2] = in water

O=c1oc2c(O)c(O)cc3c(=O)oc4c(O)c(O)cc1c4c23 [ellagic acid]
time in which more than half of the absorbed blood plasma level is broken down [1]: within one hour
solubility [2]: 0.0097 grams per liter of water
